The values below are quoted from earlier work in US20090298940A1, “All Natural Antifungal And Antimicrobial Composition And Method Thereof” (priority 2008, published 2009).

For data set [1] the following is noted: when administered internally.
The conditions of data set [2]: at 20° C.

Consider `C/C=C/C=C/C(=O)[O-].[K+]` [potassium sorbate, potassium (E,E)-hexa-2,4-dienoate], for which the tolerability result in data set [1] is given as “well tolerated”. Besides, the solubility in water in data set [2] was 58.2%.
